# Results as given in patent US20200237711A1, “Compositions for Treating and/or Preventing Cancer” (Boston Biomedical, Inc., priority 2017, published 2020).
# How the values were obtained:
# [1] = test system: metabolism of 2-acetylnaphtho[2,3-b]furan-4,9-dione in human liver cytosol; test: Screening for an inhibitor of a metabolic enzyme (human liver cytosol, LC-MS/MS); format: biochemical; details: test drug 10 μmol/L, substrate 0.5 μmol/L, 37° C., 5 minutes (FIG. 9)
# Protocol: To a reaction solution obtained by dissolving a human liver cytosol (0.1 mg/mL) and NADPH (1 mmol/L) in a phosphate buffer solution, a test drug (10 μmol/L) was added. Then, 2-acetylnaphtho[2,3-b]furan-4,9-dione was added to be 0.5 μmol/L and thereby the reaction was started. After incubation at 37° C. for 5 minutes, 50 nmol/L phenytoin solution, which had been dissolved in 0.1% formic acid-containing acetonitrile, was added and the reaction was terminated. After centrifugation, the resulting supernatant was measured using LC-MS/MS to quantify the residual amount of 2-acetylnaphtho[2,3-b]furan-4,9-dione, and the inhibition intensity of the test drugs was evaluated by comparison with the control group.
# [2] = test system: metabolism of 2-acetylnaphtho[2,3-b]furan-4,9-dione in human liver cytosol (AKR and CR); test: Identification of a metabolic enzyme of 2-acetylnaphtho[2,3-b]furan-4,9-dione (CR/AKR inhibitors in human liver cytosol); format: biochemical; details: AKR inhibitor 1.0 μmol/L or 10 μmol/L, 5 minutes (FIG. 8)
# Protocol: To a reaction solution obtained by dissolving a human liver cytosol (0.1 mg/mL) and NADPH (1 mmol/L) in a phosphate buffer solution, quercitrin (10 μmol/L or 100 μmol/L), which is a CR inhibitor, and phenolphthalein or medroxyprogesterone 17-acetate (1.0 μmol/L or 10 μmol/L), which is an AKR inhibitor, were added. Further, [^14C]-labeled 2-acetylnaphtho[2,3-b]furan-4,9-dione was added to the reaction solution such that the dione concentration is 0.5 μmol/L. After incubation at 37° C. for 5 minutes, Radio-HPLC was used to measure radioactivity.
# [3] = Metabolism measurement of 2-acetylnaphtho[2,3-b]furan-4,9-dione in human liver cytosol fractions; format: in vitro ADME; details: [14C]-labeled compound 0.5 μmol/L, human liver cytosol 0.1 mg/mL, 37° C. (FIG. 7)
# Protocol: A reaction solution obtained by dissolving a human liver cytosol (0.1 mg/mL) and NADPH (1 mmol/L) in a phosphate buffer solution was prepared. Into the reaction solution, [^14C]-labeled labeled 2-acetylnaphtho[2,3-b]furan-4,9-dione was added such that the dione concentration is 0.5 μmol/L, and thereby the reaction was started. After incubation at 37° C. for a given time, 0.1% formic acid-containing acetonitrile was added to terminate the reaction, and the mixture was centrifuged. After the supernatant was evaporated to dryness under a stream nitrogen gas, re-dissolving solvent [10 mmol/L ammonium acetate:acetonitrile, 9:1 (v/v)] was used to re-dissolve it, and then Radio-HPLC was used to measure radioactivity.
# A549 cells [4] = test: Cytotoxic effect (cell survival rate, Prest Blue), A549; format: cell-based, human; details: single agent treatment with 1.3 μmol/L, 6 hours (FIG. 12)
# Protocol: (§1) A549 cells or H460 cells were seeded onto a 96-well culture plate (Corning) at 2×10^4/well, and then cultured at 37° C. under 5% carbon dioxide atmosphere in an incubator for 48 hours. […] After which, they were cultured in the presence or absence of a test compound (30 μmol/L of flufenamic acid, 100 μmol/L of flufenamic acid, or 100 μmol/L of mefenamic acid as a final concentration) for 6 hours, Prest Blue (Life Technologies) was added, and then incubated for 1 to 2 hours. After the incubation, absorbance at 570 nm was measured to evaluate the cytotoxicity. Absorbance of a well to which a cell had not been added (Ablank) is defined as the background, the cell survival rate was calculated using the following formula to divide a value obtained by multiplying 100 by a value obtained by subtracting the background absorbance from the absorbance of each well (Asample), by a value obtained by subtracting Ablank from the value (Acontrol) of a well in which a cell with no treatment with 2-acetylnaphtho[2,3-b]furan-4,9-dione or a metabolic inhibitor was contained.
# (§2) Cell survival rate (%)=(Asample−Ablank)×100/(Acontrol−Ablank)
# H460 cells [5] = test: Cytotoxic effect (cell survival rate, Prest Blue), H460; format: cell-based, human; details: single agent treatment with 1.3 μmol/L, 6 hours (FIG. 12)
# Protocol: as §1, §2
# A549 cells [6] = test: Intracellular concentration of 2-acetylnaphtho[2,3-b]furan-4,9-dione with a metabolic inhibitor, A549; format: cell-based, human; details: 1.0 μmol/L dione with 30 or 100 μmol/L inhibitor, 2 hours (FIG. 11)
# Protocol: (§3) A549 cells or H460 cells were seeded onto a 96-well culture plate (made by Corning Inc.) at 2×10^4/well, and then cultured at 37° C. under 5% carbon dioxide atmosphere in an incubator for 48 hours. After which, they were cultured for 2 hours with 2-acetylnaphtho[2,3-b]furan-4,9-dione in a final concentration of 1.0 μmol/L and in the presence or absence of 30 μmol/L or 100 μmol/L of mefenamic acid or flufenamic acid, and then washed with PBS. After that, 80% methanol was added to each well to obtain a cell lysate. The cell lysate was analyzed using LC-MS/MS to determine the intracellular concentration of 2-acetylnaphtho[2,3-b]furan-4,9-dione.
# H460 cells [7] = test: Intracellular concentration of 2-acetylnaphtho[2,3-b]furan-4,9-dione with a metabolic inhibitor, H460; format: cell-based, human; details: 1.0 μmol/L dione with 30 or 100 μmol/L inhibitor, 2 hours (FIG. 11)
# Protocol: as §3
# [8] = Concentration in plasma and tumor by combination with mefenamic acid in tumor-bearing mice; format: in vivo, mouse; details: oral single dose
# Protocol: The following administration solution (1), (2) or (3) was orally administered to 7 week aged mice (BALB/cAnNCrlCrlj, female, Charles River Laboratories Japan, Inc.) in a single time.
# (1) 100 mg/kg of 2-acetylnaphtho[2,3-b]furan-4,9-dione
# (2) 100 mg/kg of 2-acetylnaphtho[2,3-b]furan-4,9-dione and 100 mg/kg of mefenamic acid
# (3) 100 mg/kg of 2-acetylnaphtho[2,3-b]furan-4,9-dione and 300 mg/kg of mefenamic acid
# The blood was collected 2, 6, and 16 hours after the administration, and the blood was centrifuged to give plasma. Methanol was added to the plasma such that the final concentration of methanol is 80%, and then it was centrifuged. Further, protein-removing treatment was carried out by filtering through a filter, and then 2-acetylnaphtho[2,3-b]furan-4,9-dione was detected and quantified using LC-MS/MS (API4000, AB SCIEX). Meanwhile, a tumor mass was collected at the same time as the blood collection, 2-acetylnaphtho[2,3-b]furan-4,9-dione in the tumor was detected and quantified.
# A549 cells [9] = test: Anti-tumor effect in A549 tumor-bearing mice (tumor volume); format: in vivo, mouse; details: tumor volume (FIG. 15)
# Protocol: A549 cells of 5×10^6 per individual were transplanted to a right belly part of a 5 week aged mouse (BALB/cAnNCrlCrlj, male, Charles River Laboratories Japan, Inc.). After one week, the following administration solution (1), (2), (3), (4) or (5) was orally administered in a single time. (1) 100 mg/kg of mefenamic acid (2) 30 mg/kg of 2-acetylnaphtho[2,3-b]furan-4,9-dione (3) 100 mg/kg of 2-acetylnaphtho[2,3-b]furan-4,9-dione (4) 30 mg/kg of 2-acetylnaphtho[2,3-b]furan-4,9-dione and 100 mg/kg of mefenamic acid (5) 100 mg/kg of 2-acetylnaphtho[2,3-b]furan-4,9-dione and 100 mg/kg of mefenamic acid According to a schedule in which an administration solution or an administration solution without an agent was continuously administered for five days and then medication was ceased for two days and continuous administration for five days was carried out again, it was orally administered one time a day. The major axis and the minor axis of a tumor mass were measured by vernier calipers at 2 to 5 day intervals, and the tumor volume was calculated by substituting them into the formula: (minor axis)^2×(major axis)/2.
# [10] = Concentration in plasma by combination with sulindac in cancer-bearing mice; format: in vivo, mouse; details: oral single dose, 100 mg/kg dione with 25 mg/kg sulindac, two hours after administration (FIG. 14)
# Protocol: The following administration solution (1) or (2) was orally administered to 8 week aged mice (BALB/cAnNCrlCrlj, female, Charles River Laboratories Japan, Inc.) in a single time. […] Methanol was added to the plasma such that the final concentration of methanol is 80%, and then it was centrifuged.
Compound,"inhibition of the metabolism of 2-acetylnaphtho[2,3-b]furan-4,9-dione (residual amount vs control) [1]",further results
Nc1ccc(S(=O)(=O)c2ccc(N)cc2)cc1 [dapsone],inhibited,–
CCCCc1nc(Cl)c(CO)n1Cc1ccc(-c2ccccc2-c2nn[nH]n2)cc1 [losartan],inhibited,–
CC(=O)c1ccc(S(=O)(=O)NC(=O)NC2CCCCC2)cc1 [acetohexamide],inhibited,–
CC(C(O)c1ccc(O)cc1)N1CCC(Cc2ccccc2)CC1 (centres unmarked) [ifenprodil],inhibited,–
CC(=O)N1CCN(c2ccc(OCC3COC(Cn4ccnc4)(c4ccc(Cl)cc4Cl)O3)cc2)CC1 (centres unmarked) [ketoconazole],inhibited,–
C[C@H]1C[C@H]2[C@@H]3CCC4=CC(=O)C=C[C@]4(C)[C@@]3(F)[C@@H](O)C[C@]2(C)[C@@]1(O)C(=O)CCl [clobetasol],inhibited,–
CC(=O)O[C@]1(C(C)=O)CC[C@H]2[C@@H]3C[C@H](C)C4=CC(=O)CC[C@]4(C)[C@H]3CC[C@@]21C [medroxyprogesterone 17-acetate],–,"inhibition of the metabolism of 2-acetylnaphtho[2,3-b]furan-4,9-dione [2]: more strongly inhibited than quercitrin"
OCc1cc(C(O)CNCCCCCCOCCCCc2ccccc2)ccc1O (centres unmarked) [salmeterol],inhibited,–
CN(C)CCCN1c2ccccc2Sc2ccc(Cl)cc21 [chlorpromazine],inhibited,–
CCC1=C(C)CN(C(=O)NCCc2ccc(S(=O)(=O)NC(=O)N[C@H]3CC[C@H](C)CC3)cc2)C1=O [glimepiride],inhibited,–
"CC(=O)c1cc2c(o1)C(=O)c1ccccc1C2=O [2-acetylnaphtho[2,3-b]furan-4,9-dione]",–,"metabolism in liver cytosol ([3]; NADPH 1 mmol/L): time-dependently metabolized; metabolite mainly produced in liver cytosol ([3]; NADPH): 2-(1-hydroxyethyl)naphtho[2,3-b]furan-4,9-dione (M1); cell survival rate (A549 cells [4]): ≥ 100%; cell survival rate (H460 cells [5]): ≥ 100%"
Cc1ccc(Cl)c(Nc2ccccc2C(=O)O)c1Cl [meclofenamic acid],inhibited,–
C#C[C@]1(O)CC[C@H]2[C@@H]3CCc4cc(O)ccc4[C@H]3CC[C@@]21C [ethynyl estradiol],inhibited,–
CCc1oc2ccccc2c1C(=O)c1cc(Br)c(O)c(Br)c1 [benzbromarone],inhibited,–
Cc1cccc(Nc2ccccc2C(=O)O)c1C [mefenamic acid],inhibited,"intracellular concentration of 2-acetylnaphtho[2,3-b]furan-4,9-dione in the presence of the metabolic inhibitor (A549 cells [6]): increased; intracellular concentration of 2-acetylnaphtho[2,3-b]furan-4,9-dione in the presence of the metabolic inhibitor (H460 cells [7]): increased; concentration of 2-acetylnaphtho[2,3-b]furan-4,9-dione in tumor, combination vs single agent group ([8]; 100 mg/kg dione with 300 mg/kg of mefenamic acid (FIG. 13)): higher; concentration of 2-acetylnaphtho[2,3-b]furan-4,9-dione in plasma, combination vs single agent administration ([8]; 100 mg/kg dione with 100 or 300 mg/kg mefenamic acid, 2, 6, 16 hours (FIG. 13)): higher; anti-tumor activity as a single agent (A549 cells [9]; 100 mg/kg oral once a day, 5 days on/2 off/5 on): no anti-tumor activity; anti-tumor activity of the combination with 2-acetylnaphtho[2,3-b]furan-4,9-dione vs the dione as a single agent (A549 cells [9]; 30 or 100 mg/kg dione and 100 mg/kg mefenamic acid oral once a day): significantly improved"
CC1CC2C3CCC4=CC(=O)C=CC4(C)C3(F)C(=O)CC2(C)C1(O)C(=O)CCl (centres unmarked) [clobetasone],inhibited,–
CC1=C(CC(=O)O)c2cc(F)ccc2/C1=C\c1ccc([S+](C)[O-])cc1 (centres unmarked) [sulindac],inhibited,"concentration of 2-acetylnaphtho[2,3-b]furan-4,9-dione in plasma, combination vs single agent administration [10]: higher"
COc1ccc(Cl)cc1C(=O)NCCc1ccc(S(=O)(=O)NC(=O)NC2CCCCC2)cc1 [glibenclamide],inhibited,–
O=C1OC(c2ccc(O)cc2)(c2ccc(O)cc2)c2ccccc21 [phenolphthalein],–,"inhibition of the metabolism of 2-acetylnaphtho[2,3-b]furan-4,9-dione [2]: more strongly inhibited than quercitrin"
O=C(O)c1ccccc1Nc1cccc(C(F)(F)F)c1 [flufenamic acid],inhibited,"intracellular concentration of 2-acetylnaphtho[2,3-b]furan-4,9-dione in the presence of the metabolic inhibitor (A549 cells [6]): increased; intracellular concentration of 2-acetylnaphtho[2,3-b]furan-4,9-dione in the presence of the metabolic inhibitor (H460 cells [7]): increased"
